The structures appear in SMILES notation.

For this assay, the target named is T1, p53 Y220C (Homo sapiens, UniProt P04637, Y220C).
T1 construct: The recombinant protein was a truncation mutant containing only amino acids 94-312 of p53; made in house; host or cells: E. coli
T1 sequence (P04637 94-312, change not shown): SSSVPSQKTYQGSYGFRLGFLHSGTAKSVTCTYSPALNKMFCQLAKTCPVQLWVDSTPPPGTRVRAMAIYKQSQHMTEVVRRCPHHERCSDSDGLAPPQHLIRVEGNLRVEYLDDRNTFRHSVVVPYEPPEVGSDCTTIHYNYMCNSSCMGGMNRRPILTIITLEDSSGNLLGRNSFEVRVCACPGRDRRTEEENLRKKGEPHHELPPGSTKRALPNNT
In words: In vitro DNA binding activity assay (HTRF / TR-FRET): stabilization of p53 Y220C and increase of its DNA binding activity. The assay is classed as biochemical. As to conditions: recombinant His-tagged p53 Y220C DNA binding domain (aa 94-312), biotin-labeled consensus DNA, incubated at 27° C. or 29° C. for 60 min. Put shortly:
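Test compounds, diluted 3-fold in DMSO from 4.5 mM stocks, were incubated with bacterially expressed His-tagged p53 Y220C at room temperature for 15 min, and after a further step for 20 min. DNA binding was detected by time-resolved FRET between APC and europium labels. SC150 marks the concentration increasing binding by 50%.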
On to `CNC(=O)c1ccc(NCC#Cc2cc3c(NC4CCN(CC5COC(=O)O5)CC4)cccc3n2CC(F)(F)F)c(OC)c1` (stereo not drawn) [Compound 762A, 3-methoxy-N-methyl-4-({3-[4-({1-[(2-oxo-1,3-dioxolan-4-yl)methyl]piperidin-4-yl}amino)-1-(2,2,2-trifluoroethyl)-1H-indol-2-yl]prop-2-yn-1-yl}amino)benzamide], for which the “SC150 (concentration of the compound required to increase the DNA binding activity by 50%)” value is given as “+ (+ = 0 μM ≤ SC150 < 0.05 μM)”.

On to `COc1cc(C(N)=O)ccc1NCC#Cc1cc2c(NC3CCN(C[C@@H](O)CO)CC3)cccc2n1CC(F)(F)F` [Compound 583A], for which the “SC150 (concentration of the compound required to increase the DNA binding activity by 50%)” value was “+ (+ = 0 μM ≤ SC150 < 0.05 μM)”.

`COc1cc(S(C)(=O)=O)ccc1NCC#Cc1cc2c(NC3CCN(C(=O)C(C)O)CC3)cccc2n1CC(F)(F)F` (stereo not drawn) [Compound 742A]: the “SC150 (concentration of the compound required to increase the DNA binding activity by 50%)” value is listed as “+ (+ = 0 μM ≤ SC150 < 0.05 μM)”.

Regarding `COc1cc(S(C)(=O)=O)ccc1NCC#Cc1cc2c(NC3CCN(C[C@@H]4COC(=O)O4)CC3)cccc2n1CC(F)(F)F` [Compound 563A, (4R)-4-({4-[(2-{3-[(4-methanesulfonyl-2-methoxyphenyl)amino]prop-1-yn-1-yl}-1-(2,2,2-trifluoroethyl)-1H-indol-4-yl)amino]piperidin-1-yl}methyl)-1,3-dioxolan-2-one], the “SC150 (concentration of the compound required to increase the DNA binding activity by 50%)” value is “+ (+ = 0 μM ≤ SC150 < 0.05 μM)”.

Regarding `COc1cc(S(C)(=O)=O)ccc1NCC#Cc1cc2c(N[C@H]3CN(C)CC[C@H]3O)cccc2n1CC(F)(F)F` (racemic) [Compound 766A, rac-(3R,4S)-3-[(2-{3-[(4-methanesulfonyl-2-methoxyphenyl)amino]prop-1-yn-1-yl}-1-(2,2,2-trifluoroethyl)-1H-indol-4-yl)amino]-1-methylpiperidin-4-ol], the “SC150 (concentration of the compound required to increase the DNA binding activity by 50%)” value was “+ (+ = 0 μM ≤ SC150 < 0.05 μM)”.

As for `COc1cc(C(=O)NC[C@H](C)O)ccc1NCC#Cc1cc2c(N[C@@H]3CCN(C)C[C@@H]3F)cccc2n1CC(F)(F)F` [Compound 961A, 4-{[3-(4-{[(3S,4R)-3-fluoro-1-methylpiperidin-4-yl]amino}-1-(2,2,2-trifluoroethyl)-1H-indol-2-yl)prop-2-yn-1-yl]amino}-N-[(2S)-2-hydroxypropyl]-3-methoxybenzamide], the “SC150 (concentration of the compound required to increase the DNA binding activity by 50%)” value is given as “+ (+ = 0 μM ≤ SC150 < 0.05 μM)”.

With `CN1CC[C@@H](Nc2cccc3c2cc(C#CCNC(=O)c2ccn(C)c2)n3CC(F)(F)F)[C@@H](F)C1` [Compound 953A, N-[3-(4-{[(3S,4R)-3-fluoro-1-methylpiperidin-4-yl]amino}-1-(2,2,2-trifluoroethyl)-1H-indol-2-yl)prop-2-yn-1-yl]-1-methyl-1H-pyrrole-3-carboxamide], the “SC150 (concentration of the compound required to increase the DNA binding activity by 50%)” value is “+ (+ = 0 μM ≤ SC150 < 0.05 μM)”.

As to `CNC(=O)c1ccc(NCC#Cc2cc3c(N[C@H]4CC[C@@H](NC)CC4)cccc3n2CC(F)(F)F)c(OC)c1` [Compound 110A, 3-methoxy-N-methyl-4-{[3-(4-{[(1S,4S)-4-(methylamino)cyclohexyl]amino}-1-(2,2,2-trifluoro-ethyl)-1H-indol-2-yl)prop-2-yn-1-yl]amino}benzamide], the “SC150 (concentration of the compound required to increase the DNA binding activity by 50%)” value is listed as “+ (+ = 0 μM ≤ SC150 < 0.05 μM)”.

For the molecule `COc1cc(S(C)(=O)=O)ccc1NCC#Cc1cc2c(N[C@H]3CC[C@H](N4CC5(CCC5)C4)CC3)cccc2n1CC(F)(F)F` [Compound 194A, 2-{3-[(4-methane-sulfonyl-2-methoxy-phenyl)amino]prop-1-yn-1-yl}-N-[(1R,4R)-4-{2-azaspiro[3.3]heptan-2-yl}cyclohexyl]-1-(2,2,2-trifluoroethyl)-1H-indol-4-amine], the “SC150 (concentration of the compound required to increase the DNA binding activity by 50%)” value is on record as “+ (+ = 0 μM ≤ SC150 < 0.05 μM)”.

On to `COc1cc(S(N)(=O)=O)ccc1NCC#Cc1cc2c(N[C@H]3CC[C@H](N(CCO)CCO)CC3)cccc2n1CC(F)(F)F` [Compound 44A, 3-methoxy-4-{[3-(4-{[(1R,4R)-4-[bis(2-hydroxyethyl)amino]cyclohexyl]amino}-1-(2,2,2-trifluoroethyl)-1H-indol-2-yl)prop-2-yn-1-yl]amino}benzene-1-sulfonamide], for which the “SC150 (concentration of the compound required to increase the DNA binding activity by 50%)” value was “+ (+ = 0 μM ≤ SC150 < 0.05 μM)”.

Turning to `CCC(=O)OCC(CNC(=O)c1ccc(NCC#Cc2cc3c(N[C@@H]4CCN(C)C[C@@H]4F)cccc3n2CC(F)(F)F)c(OC)c1)OC(=O)CC` (stereo partly drawn) [Compound 971A, 1-[(4-{[3-(4-{[(3S,4R)-3-fluoro-1-methylpiperidin-4-yl]amino}-1-(2,2,2-trifluoroethyl)-1H-indol-2-yl)prop-2-yn-1-yl]amino}-3-methoxyphenyl)formamido]-3-(propanoyloxy)propan-2-ylpropanoate], the “SC150 (concentration of the compound required to increase the DNA binding activity by 50%)” value was “+ (+ = 0 μM ≤ SC150 < 0.05 μM)”.

`COc1cc(S(C)(=O)=O)ccc1NCC#Cc1cc2c(NC3CCN(CC(O)COCC(F)(F)F)CC3)cccc2n1CC(F)(F)F` (stereo not drawn) [Compound 673A, 1-{4-[(2-{3-[(4-methanesulfonyl-2-methoxyphenyl)amino]prop-1-yn-1-yl}-1-(2,2,2-trifluoroethyl)-1H-indol-4-yl)amino]piperidin-1-yl}-3-(2,2,2-trifluoroethoxy)propan-2-ol]: the “SC150 (concentration of the compound required to increase the DNA binding activity by 50%)” value was “+ (+ = 0 μM ≤ SC150 < 0.05 μM)”.

Turning to `CCNC(=O)c1ccc(NCC#Cc2cc3c(N[C@H]4CC[C@H](N(C)C)CC4)cccc3n2CC(F)(F)F)c(OC)c1` [Compound 101A, N-ethyl-3-methoxy-4-{[3-(4-{[(1R,4R)-4-(dimethylamino)cyclo-hexyl]amino}-1-(2,2,2-trifluoroethyl)-1H-indol-2-yl)prop-2-yn-1-yl]amino}benzamide], the “SC150 (concentration of the compound required to increase the DNA binding activity by 50%)” value is “+ (+ = 0 μM ≤ SC150 < 0.05 μM)”.

In the case of `COc1cc(S(=O)(=O)N(C)C)ccc1NCC#Cc1cc2c(NC3CCN(C(=O)CO)CC3)cccc2n1CC(F)(F)F` [Compound 730A], the “SC150 (concentration of the compound required to increase the DNA binding activity by 50%)” value is “+ (+ = 0 μM ≤ SC150 < 0.05 μM)”.

As to `CNC(=O)c1ccc(NCC#Cc2cc3c(N[C@H]4CC[C@H](N5CCC6(CC5)COC6)CC4)cccc3n2CC(F)(F)F)c(OC)c1` [Compound 375A, 3-methoxy-N-methyl-4-{[3-(4-{[(1R,4R)-4-{2-oxa-7-azaspiro[3.5]nonan-7-yl}cyclohexyl]amino}-1-(2,2,2-trifluoroethyl)-1H-indol-2-yl)prop-2-yn-1-yl]amino}benzamide], the “SC150 (concentration of the compound required to increase the DNA binding activity by 50%)” value is “+ (+ = 0 μM ≤ SC150 < 0.05 μM)”.

As for `CN1CCC(Nc2cccc3c2cc(C#CCNc2ccc(S(C)(=O)=O)cc2OC(F)(F)F)n3CC(F)(F)F)CC1` [Compound 466A], the “SC150 (concentration of the compound required to increase the DNA binding activity by 50%)” value is recorded as “+ (+ = 0 μM ≤ SC150 < 0.05 μM)”.

Regarding `COc1cc(C(=O)O)ccc1NCC#Cc1cc2c(N[C@H]3CCN(CC(N)=O)C[C@H]3F)cccc2n1CC(F)(F)F` [Compound 925A], the “SC150 (concentration of the compound required to increase the DNA binding activity by 50%)” value is given as “+ (+ = 0 μM ≤ SC150 < 0.05 μM)”.

Regarding `COc1cc(S(C)(=O)=O)ccc1NCC#Cc1cc2c(N[C@H]3CC[C@H](N4CCS(=O)(=O)CC4)CC3)cccc2n1CC(F)(F)F` [Compound 362A, 4-[(1R,4R)-4-[(2-{3-[(4-methanesulfonyl-2-methoxyphenyl)amino]prop-1-yn-1-yl}-1-(2,2,2-trifluoroethyl)-1H-indol-4-yl)amino]cyclohexyl]-1λ^6-thiomorpholine-1,1-dione], the “SC150 (concentration of the compound required to increase the DNA binding activity by 50%)” value is given as “+ (+ = 0 μM ≤ SC150 < 0.05 μM)”.

Values taken from patent publication US12428406B2 (PMV Pharmaceuticals, Inc., priority 2019, dated 2025).
